{"source": "patent US20260002950A1", "about": "“Uses of 5-Aminovaleric Acid Betaine and Compositions Related Thereto” (Emory University, priority 2021, published 2026)", "key": {"[1]": {"system": "carnitine shuttle", "experiment": "Stable isotope tracer study of palmitate metabolism in cultured cells", "type": "cell-based", "method": "(§1) Dose-response experiments with VB were performed in vitro and in vivo to examine metabolic effects of VB. The mitochondrial carnitine shuttle is the top metabolic pathway associated with VB in human HepG2 cells. […] The carnitine shuttle uses carnitine for transport of long-chain fatty acyl chains into mitochondria for fatty acid β-oxidation. […] The effect of VB on inhibition of palmitate-dependent oxygen consumption rate is confirmed by stable isotope tracer studies of palmitate metabolism, which show VB inhibits formation of ^13C16 palmitoylcarnitine from ^13C16 palmitate and decreases the formation of ^13C2 acetyl-CoA (FIG. 2D). […] Thus, VB inhibits mitochondrial long chain fatty acid metabolism through effects on carnitine and operation of the carnitine shuttle."}, "[2]": {"system": "mice", "details": "cited from earlier work"}, "[3]": {"system": "mouse cardiomyocytes", "details": "cited from earlier work"}, "[4]": {"molecular_target": "T1, γ-butyrobetaine hydroxylase (Homo sapiens, UniProt O75936)", "T1 sequence (O75936 1-387)": "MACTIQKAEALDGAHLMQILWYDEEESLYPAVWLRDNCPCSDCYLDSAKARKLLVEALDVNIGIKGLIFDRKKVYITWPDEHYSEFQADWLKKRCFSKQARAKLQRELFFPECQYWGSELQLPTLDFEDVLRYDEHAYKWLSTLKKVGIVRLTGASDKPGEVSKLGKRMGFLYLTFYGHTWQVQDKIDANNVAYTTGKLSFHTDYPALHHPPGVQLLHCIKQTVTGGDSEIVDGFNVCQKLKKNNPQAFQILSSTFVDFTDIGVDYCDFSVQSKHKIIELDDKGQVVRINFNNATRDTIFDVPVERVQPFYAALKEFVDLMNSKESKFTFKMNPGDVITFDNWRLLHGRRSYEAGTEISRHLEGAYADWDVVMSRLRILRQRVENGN", "details": "cited from earlier work"}, "[5]": {"system": "human HepG2 cells", "experiment": "Cell content of carnitine in HepG2 cells, VB dose-response", "type": "cell-based", "details": "VB at 10 μM, vs control cells", "method": "as §1"}, "[6]": {"system": "GF mice", "experiment": "6-week VB treatment of germ-free (GF) mice on Western or control diet", "type": "in vivo", "method": "FIG. 4A illustrates experiments on long-term VB treatment in GF mice. Male GF mice were administered PBS or VB in conjunction with a control diet (CD) or WD for 6 weeks with body weight recorded as percentage weight gain (two-way repeat measures ANOVA with multiple comparisons per day.\n(§2) VB effects in fasting are particularly intriguing as a mechanism causing obesity because decreasing mitochondrial β-oxidation of lipids mobilized from adipose tissue during fasting could cause a long-term increase in fat deposition. Therefore, experiments were performed to determine whether long-term VB treatment could increase weight gain and adiposity in mice. This was tested this in both GF and conventional mice, with or without a high-fat/sugar WD. Backhead et al. report a resistance to diet-induced obesity in germ-free mice. PNSA, 104 (3), 2007. […] Furthermore, VB treatment exacerbated the development of hepatic steatosis in these mice (FIG. 4E). Similarly, VB increased adipose tissue fat mass (VAT, SubQ, BAT) in conventional mice after 8 weeks with the WD. The relative increases were most pronounced in white adipose compartments (VAT, SubQ) where fat mass in VB treated GF and conventional mice on a WD was increased over 80% compared to WD alone.\n(§3) Although WD-fed mice gained more weight than control fed mice, no differences in circulating VB were observed between WD or control-diet-fed conventional mice. These effects were not observed in GF or conventional mice fed the control diet."}, "[7]": {"experiment": "Concentrations of VB in tissues and circulation of conventional mice (mass spectrometry)", "type": "in vivo", "details": "endogenous", "text": "To identify microbial metabolites that could impact mitochondrial function, the metabolome of liver and liver mitochondria was examined in mice with an intact microbiome (“conventionalized” mice in which germ-free mice were reconstituted with microbiome) compared to liver and liver mitochondria from germ-free mice (FIG. 1A). The top discriminatory metabolite has an accurate mass m/z of 160.1332 by ultra-high-resolution mass spectrometry, corresponding to predicted elemental composition C8H18NO2. This metabolite is found in liver and other tissues, portal and peripheral circulation, and cecum of conventional but not germ-free mice (FIG. 1B). Authentic standard co-elution and MS/MS experiments show the identity of 160.1332 m/z to be delta-valerobetaine (VB) (FIG. 1C). Concurrent analyses of propionylcholine and valine betaine, similar molecules with identical elemental compositions, conclusively excluded these structures. VB was not present in the mouse diet and was not detectable in other samples collected from GF mice. […] Concentrations were 9-26 μM in the portal vein, with higher concentrations in the liver (75-190 μmol/kg wet weight) and lower concentrations in the peripheral plasma (2-10 μM) indicating tissue accumulation."}, "[8]": {"system": "PPAR-response element", "experiment": "PPAR-response element-linked luciferase activity", "type": "cell-based", "text": "An alternative interpretation of VB activity involves an adaptive response termed mitohormesis, a process by which a minor impairment increases gene expression of mitochondrial systems which improve metabolic function of mitochondria. […] With this interpretation, VB-induced lipid accumulation could drive activity of SIRT1, PGC-1a and PPAR-a pathways which control carnitine homeostasis, mitochondrial bioenergetics, and lipid metabolism. […] Thus, VB may function through a mitohormesis response mechanism and in conjunction with diet and aging, contribute to age dependent changes in adiposity."}, "[9]": {"system": "conventional mice", "experiment": "8-week VB treatment of conventional mice on Western or control diet: adiposity", "type": "in vivo", "text": "(n=5 per group, one-tailed t-test).\nThe relative increases are most pronounced in VAT, where fat mass in VB-treated mice on a Western diet was increased 80% in male mice and 60% in female mice compared to Western diet alone. […] The long-term consequences of VB inhibition of mitochondrial β-oxidation of fatty acids therefore include effects on body composition in mice receiving Western diet, with specific and pronounced effects on visceral adipose tissue mass.\nas §2, §3"}, "[10]": {"system": "HepG2 cells", "experiment": "Palmitate-dependent mitochondrial O2 consumption rate in HepG2 cells", "type": "cell-based, human", "method": "[…] Effect of VB is most pronounced in the spare capacity measured after addition of the uncoupler FCCP.\nas §1"}, "[11]": {"system": "mice", "experiment": "VB treatment of mice, daily intraperitoneal injection for 1 week: carnitine and metabolite profiles", "type": "in vivo", "method": "Mice of each sex were given daily intraperitoneal injection with saline (n=5), VB at 10 mg/kg (n=3) or VB at 100 mg/kg (n=8) for 1 week. Kruskal-Wallis test with Dunn's multiple comparisons test to identify pairwise differences in GraphPad Prism 6.0.\n(§4) As observed in cells, the carnitine shuttle is the top metabolic pathway associated with VB-treatment in mice. VB treatment decreases circulating (FIG. 2A), hepatic (FIG. 2B), heart, and brain carnitine. Furthermore, VB treatment alters circulating and systemic acylcarnitine and acyl-CoA profiles. In whole tissue, VB increases hepatic and cardiac palmitoyl-CoA and decreases other short, medium, and long-chain acylcarnitines and CoAs under fasted conditions. In mitochondria, VB decreases the abundance of long-chain fatty acyl-CoAs and carnitines, consistent with a decrease in long-chain fatty acid β oxidation. VB also decreases circulating and hepatic β-hydroxybutyrate, a product of mitochondrial β-fatty acid oxidation."}, "[12]": {"system": "mice", "experiment": "VB treatment of mice for 3 days ± fasting: hepatic lipid accumulation", "type": "in vivo", "method": "Mice of each sex were given daily intraperitoneal injection with saline (n=5) or VB at 100 mg/kg (n=5) for 3 days±fasting.\nas §4"}}, "note": "Entries after “also recorded” stand apart in the source; their conditions may differ."}
{"smiles": "C[N+](C)(C)CC(O)CC(=O)[O-]", "note": "(centres unmarked) [carnitine, reference compound]", "values": [{"measurement": "Rescue of VB effect on cellular carnitine and palmitoylcarnitine formation", "setting": "[1]; addition of carnitine to VB-treated cells", "value": "restores cellular carnitine and formation of palmitoylcarnitine"}]}
{"smiles": "C[N+](C)(C)CCCCC(=O)[O-]", "note": "[VB, 5-(trimethylammonio) pentanoate]", "values": [{"measurement": "Fatty liver", "setting": "[2]", "value": "exacerbates"}, {"measurement": "β-oxidation of fatty acids", "setting": "[3]", "value": "decreases"}, {"measurement": "γ-butyrobetaine hydroxylase activity", "setting": "[4]", "value": "inhibits"}, {"measurement": "Cell content of carnitine", "setting": "[5]", "value": "decreased to half that of control cells"}, {"measurement": "Formation of 13C16 palmitoylcarnitine from 13C16 palmitate", "setting": "[1]; cultured cells", "value": "inhibits"}, {"measurement": "Formation of 13C2 acetyl-CoA from labeled palmitate", "setting": "[1]; cultured cells, n=3", "value": "decreases"}, {"measurement": "Carnitine concentrations after parenteral VB dosing", "setting": "[6]; GF mice", "value": "equivalent to conventional mice"}, {"measurement": "Increase of fat mass in white adipose compartments (VAT, SubQ) vs WD alone", "setting": "[6]; GF mice on WD", "value": "over 80%"}, {"measurement": "Adipose tissue fat mass in VAT, SubQ and BAT compartments vs WD alone", "setting": "[6]; GF mice, WD, six weeks", "value": "substantial increases"}, {"measurement": "Weight gain", "setting": "[6]; GF mice, WD, six weeks", "value": "increased weight gain"}, {"measurement": "Development of hepatic steatosis", "setting": "[6]; GF mice, WD, six weeks, liver H&E scoring", "value": "exacerbated"}, {"measurement": "Effects on adiposity, steatosis and body mass on control diet", "setting": "[6]; GF mice, control diet", "value": "not observed"}, {"measurement": "Concentration of VB in the cecum", "setting": "[7]", "value": "millimolar range"}, {"measurement": "Concentration of VB in the liver", "setting": "[7]", "value": "75-190 μmol/kg wet weight"}, {"measurement": "Concentration of VB in the peripheral plasma", "setting": "[7]", "value": "2 to 10", "unit": "µM"}, {"measurement": "Concentration of VB in the portal vein", "setting": "[7]", "value": "9 to 26", "unit": "µM"}, {"measurement": "Concentration of VB in the colon", "setting": "[7]; relative to cecum", "value": "somewhat lower concentrations"}, {"measurement": "PPAR-response element-linked luciferase activity", "setting": "[8]", "value": "dose-dependent increase"}, {"measurement": "Weight of brown adipose tissue (BAT)", "setting": "[9]; 8 weeks", "value": "increased by VB in a diet dependent manner after 8-week VB treatment in males but not females; also recorded: increases brown adipose tissue (BAT) but in a less consistent manner"}, {"measurement": "Weight of subcutaneous white adipose tissue (WAT)", "setting": "[9]; Western diet, 8 weeks", "value": "increased by VB in a diet-dependent manner; also recorded: substantial increases"}, {"measurement": "Weight of visceral adipose tissue (VAT)", "setting": "[9]; Western diet, 8 weeks", "value": "increased by VB in a diet dependent manner; also recorded: substantial increases"}, {"measurement": "Increase of fat mass in white adipose compartments (VAT, SubQ) vs WD alone", "setting": "[9]; conventional mice on WD", "value": "over 80%"}, {"measurement": "Adipose tissue fat mass (VAT, SubQ, BAT)", "setting": "[9]; conventional mice, WD, 8 weeks", "value": "increased"}, {"measurement": "Severity of hepatic steatosis", "setting": "[9]; conventional mice, Western diet, 8 weeks", "value": "Trends for increase"}, {"measurement": "Total body mass", "setting": "[9]; conventional mice, Western diet, after 8 weeks, not p<0.05", "value": "Trends for increase"}, {"measurement": "Effects on adiposity, steatosis and body mass on control diet", "setting": "[9]; conventional mice, control diet", "value": "not observed"}, {"measurement": "Increase of visceral adipose tissue (VAT) fat mass vs Western diet alone", "setting": "[9]; female mice, Western diet, 8 weeks", "value": 60, "unit": "%"}, {"measurement": "Increase of visceral adipose tissue (VAT) fat mass vs Western diet alone", "setting": "[9]; male mice, Western diet, 8 weeks", "value": 80, "unit": "%"}, {"measurement": "Palmitate-dependent mitochondrial oxygen respiration (O2 consumption rate)", "setting": "[10]; HepG2, 12 h without glucose, glutamine and pyruvate (mimicking fasting), VB 10 or 50 μM", "value": "inhibited; also recorded: dose-dependent decrease"}, {"measurement": "Basal, ADP-linked O2 consumption rate, spare capacity, non-mitochondrial respiration", "setting": "[10]; glucose, glutamine and pyruvate present at high concentration in culture media", "value": "little decrease"}, {"measurement": "Circulating and hepatic β-hydroxybutyrate", "setting": "[11]", "value": "decreases"}, {"measurement": "Circulating carnitine", "setting": "[11]; VB 10 or 100 mg/kg i.p. daily, 1 week", "value": "decreases"}, {"measurement": "Brain carnitine", "setting": "[11]; VB treatment", "value": "decreases"}, {"measurement": "Heart carnitine", "setting": "[11]; VB treatment", "value": "decreases"}, {"measurement": "Hepatic carnitine", "setting": "[11]; VB treatment", "value": "decreases"}, {"measurement": "Triacylglycerol and diacylglycerol species in liver, heart and brain", "setting": "[11]; lipid profiling", "value": "increases"}, {"measurement": "Abundance of long-chain fatty acyl-CoAs and carnitines in mitochondria", "setting": "[11]; mitochondria", "value": "decreases"}, {"measurement": "Liver triglycerides (hepatic steatosis)", "setting": "[12]; male and female mice, VB 100 mg/kg i.p. 3 days, fasted", "value": "exacerbates hepatic steatosis; also recorded: increase"}, {"measurement": "Liver lipid deposits, Oil Red O staining", "setting": "[12]; mice, especially under fasted conditions", "value": "increases lipid deposits"}, {"measurement": "Hepatic and cardiac palmitoyl-CoA", "setting": "[12]; mice, whole tissue, fasted conditions", "value": "increases"}]}
